PubChem BioAssay AID977628 (Broad Institute, 2014)
Results filed as inconclusive are left out. Activity calls are given as the source filed them.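 Rule for the calls: active = compound lowering the normal-ribosome reporter at least twice as much as the humanized-ribosome reporter, growth loss under a set limit; inconclusive = no clear call, values can overlap the other calls; inactive = the rest.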

Legend:
[1] = tested on: E. coli mixed WT/h24 culture total growth, OD600, 24 h; experiment: growth of wild-type and h24-humanized E. coli strains – h24 mutant RFP vs wild-type GFP, cherry-pick, dose response (AID 977628)
[2] = tested on: E. coli WT GFP strain growth, fluorescence, 24 h; experiment: as above

Row | Compound | AC50 [1] [µM] | AC50 [2]
1 | Cc1cc(C)n(CC(O)COc2ccc3ccccc3c2)n1 (stereo not given) | > 100 | > 100 µM (inactive)
2 | O=S(=O)(Nc1ccc(-c2nc3cccnc3s2)cc1)c1cc(F)ccc1F | > 100 | > 100 µM (inactive)
3 | COc1ccc(OC)c(-c2nnc3n2N=C(c2ccc(OC)c(OC4CCOC4)c2)CS3)c1 (stereo not given) | > 100 | > 100 µM (inactive)
4 | COc1ccc(C(=O)COC(=O)c2ccccc2O)c(OC)c1 | 40 | > 100 µM (inactive)
5 | CCCc1nc2oc3c(NCCCN(C)C)ncnc3c2c2c1CCCC2 | > 100 | > 100 µM (inactive)
6 | Cc1cc(OCC(=O)N(Cc2ccco2)C2CCS(=O)(=O)C2)ccc1Cl (stereo not given) | > 100 | > 100 µM (inactive)
7 | COc1cc2c(cc1OC)CN(c1ccc([N+](=O)[O-])c(C(F)(F)F)c1)CC2 | > 100 | > 100 µM (inactive)
8 | COc1cc(C(F)(F)F)c(C(=O)N(C)Cc2ccc(Cl)c(Cl)c2)cn1 | > 100 | > 100 µM (inactive)
9 | COc1ccc(CNC(=O)c2cc3c(s2)CN(Cc2ccccc2)C3)cc1 | > 100 | > 100 µM (inactive)
10 | COc1ccc(N(C)S(=O)(=O)c2cccc(C(=O)NC3CCCCC3C)c2)cc1 (stereo not given) | 47.7 | > 100 µM (inactive)
11 | COc1cccc(OCCNS(=O)(=O)c2ccccc2[N+](=O)[O-])c1 | > 100 | > 100 µM (inactive)
12 | CCCN(CC(=O)Nc1ccccc1C)C(=O)c1cccc(S(=O)(=O)N2CCc3ccccc3C2)c1 | 51.9 | > 100 µM (inactive)
13 | COc1ccc(-n2ccnc2SCC(=O)NCc2ccccc2)c(OC)c1 | > 100 | > 100 µM (inactive)
14 | C=CCn1c(CCSCc2ccc(OC)c(C)c2)n[nH]c1=S | 51.2 | > 100 µM (inactive)
15 | Cc1cc(C(=O)OCC(=O)Nc2cccc(S(N)(=O)=O)c2)c2ccccc2n1 | > 100 | > 100 µM (inactive)
16 | O=C(CC(=O)c1cccs1)c1ccncc1 | > 100 | > 100 µM (inactive)
17 | CCOc1ccc2oc(C(=O)NC3CCN(Cc4ccccc4)CC3)c(C)c2c1 | > 100 | > 100 µM (inactive)
18 | O=C(Nc1ccc2nc3n(c(=O)c2c1)CCCCC3)c1c(F)ccc([N+](=O)[O-])c1F | > 100 | > 100 µM (inactive)
19 | CS(=O)(=O)N(CC(=O)N1CCc2ccccc2C1)c1ccc(Br)cc1 | 47 | > 100 µM (inactive)
20 | COc1ccc(C)cc1NC(=O)c1nn(C)cc1Br | > 100 | > 100 µM (inactive)
21 | Cn1c(SCC(=O)Nc2ccccc2-c2ccccc2)nnc1-c1ccco1 | > 100 | > 100 µM (inactive)
22 | CN1c2ccc(C#Cc3cccnc3)cc2[C@@H]2[C@@H](CCN2C(=O)c2cccc(F)c2)[C@H]1CO | > 100 | > 100 µM (inactive)
23 | CC(C)Oc1cccc(C(=O)C2CCCN(Cc3ccc4nonc4c3)C2)c1 (stereo not given) | 36.8 | > 100 µM (inactive)
24 | CCCNC(=O)c1cc(C2CCCN(S(=O)(=O)c3cccc4cccnc34)C2)on1 (stereo not given) | > 100 | > 100 µM (inactive)
25 | CCN(CC)CC(=O)Nc1ccc(-c2ccc(NC(=O)CN(CC)CC)c(OC)c2)cc1OC | > 100 | > 100 µM (inactive)
26 | CCOc1ccc(NC(=O)CCc2nnc3ccc(N4CCC(C)CC4)nn23)cc1 | > 100 | > 100 µM (inactive)
27 | COC(=O)c1ccc2nc(-c3ccc(OC)c(OC)c3)c(Cc3ccc(C)cc3)n2c1 | > 100 | > 100 µM (inactive)
28 | O=C(NCc1nnnn1-c1ccc(Cl)cc1)c1ccc([N+](=O)[O-])o1 | > 100 | > 100 µM (inactive)
29 | O=S(=O)(Nc1ccc(-c2cnco2)cc1)c1ccccc1 | > 100 | > 100 µM (inactive)
30 | Cc1ccc(NC(=O)c2cccs2)cc1[N+](=O)[O-] | > 100 | > 100 µM (inactive)
